The test has as its target T1, ScPma1p (Saccharomyces cerevisiae, UniProt P05030).
T1 construct: gene PMA1; ScPma1p-coated secretory vesicles from S. cerevisiae overexpressing ScPMA1
Put plainly: cell-free vesicle ATPase assay (Pi release). Type of test: biochemical.

Structures are written as SMILES.

T1 sequence (P05030 whole entry): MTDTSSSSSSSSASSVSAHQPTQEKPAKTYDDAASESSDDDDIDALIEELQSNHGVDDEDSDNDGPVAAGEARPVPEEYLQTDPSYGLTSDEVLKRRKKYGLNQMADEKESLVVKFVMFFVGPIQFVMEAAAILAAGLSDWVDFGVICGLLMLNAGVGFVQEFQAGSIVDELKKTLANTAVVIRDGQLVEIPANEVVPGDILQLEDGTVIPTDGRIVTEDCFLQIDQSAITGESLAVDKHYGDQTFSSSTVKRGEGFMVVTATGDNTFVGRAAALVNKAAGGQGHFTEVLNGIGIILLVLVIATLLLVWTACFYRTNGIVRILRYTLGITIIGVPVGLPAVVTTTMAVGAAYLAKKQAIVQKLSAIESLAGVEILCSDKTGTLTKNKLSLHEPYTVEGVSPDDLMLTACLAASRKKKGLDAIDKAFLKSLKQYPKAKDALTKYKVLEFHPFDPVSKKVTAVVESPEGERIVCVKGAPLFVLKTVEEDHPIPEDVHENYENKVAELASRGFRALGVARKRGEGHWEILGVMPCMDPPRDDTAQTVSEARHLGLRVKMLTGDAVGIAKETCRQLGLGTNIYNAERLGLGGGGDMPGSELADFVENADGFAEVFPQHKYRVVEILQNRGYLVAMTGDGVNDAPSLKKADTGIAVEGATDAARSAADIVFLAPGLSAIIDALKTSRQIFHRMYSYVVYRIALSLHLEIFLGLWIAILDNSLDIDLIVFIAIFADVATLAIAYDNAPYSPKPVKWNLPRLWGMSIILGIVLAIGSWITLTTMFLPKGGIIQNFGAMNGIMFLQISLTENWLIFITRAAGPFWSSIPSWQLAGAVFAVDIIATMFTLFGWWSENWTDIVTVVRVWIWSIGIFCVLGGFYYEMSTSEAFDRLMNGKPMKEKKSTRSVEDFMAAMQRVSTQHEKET

As usually defined, the IC50 is the midpoint of a concentration-inhibition curve. A higher IC50 goes with weaker potency in that assay. For the compound `C[C@H]1Cc2c([nH]c3cc(Cl)c(F)cc23)[C@@]2(N1)C(=O)Nc1ccc(Cl)cc12` [6′F 7′Cl, KAE609], the IC50 stood at 81.1 nM.

(Values after paper PMC4904242, “Comparative chemical genomics reveal that the spiroindolone antimalarial KAE609 (Cipargamin) is a P-type ATPase inhibitor” (Scientific Reports, 2016).)
